Measurements as given in paper PMC8151329, “Modulation of γ-Secretase Activity by a Carborane-Based Flurbiprofen Analogue” (Molecules, 2021).
Where two headings read alike, the source gives them in different places.

Columns and labels:
HCT116 = experiment: MTT cytotoxicity test HCT116; assay type: cell-based, human; conditions: HCT116, 48 h, up to 100 µM, mean ± SD
Experimental: (§1) The used human tumour (i.e., melanoma A375, colon cancer HCT116 and HT29, and glioblastoma LN229 and U251) and rodent tumour (i.e., mouse melanoma B16 and B16–F10; rat glioma C6) cell lines as well as murine transformed non-malignant fibroblast cell line NIH/3T3 differed in their rates of COX-1 and COX-2 expression.
(§2) Cytotoxicity was determined by conducting MTT and CV assays using cell viability as an indicator [67]. All measurements were carried out in triplicates.

γ-secretase = molecular target: T1, γ-secretase (Homo sapiens, UniProt P49768); assay type: cell-based; conditions: HEK/sw cells
T1 construct: endogenous in cells; host or cells: HEK293 cells stably overexpressing Swedish-mutant APP (HEK/sw)
Experimental: The γ-secretase modulator (GSM) activity of compound 5 was tested on human embryonic kidney (HEK) 293 cells stably overexpressing ”Swedish mutant” APP (HEK/sw), a well-established cell culture model to assess GSM activity. The effect of compound 5 on Aβ production was analysed in comparison to flurbiprofen over a relevant and cell tolerable concentration range (Figure 1).
Nearly confluent (80%) HEK/sw cells were treated with the indicated concentrations of compound 5 or flurbiprofen ((±)-2-fluoro-α-methyl-4-biphenylacetic acid; F8514, Sigma–Aldrich, St. Louis, MO, USA) as described before. Cells treated with DMSO or 1 µM GSM-1 were used as negative and positive controls, respectively. After overnight treatment, the conditioned medium was collected, cleared by centrifugation (10 min, 4 °C, 16,000× g), and the levels of secreted Aβ38, Aβ40, and Aβ42 were analysed using an established Aβ species-specific sandwich immunoassay purchase from Meso Scale Discovery (MSD, Rockville, MD, USA).

ovine COX-1 = molecular target: T2, ovine COX-1 (Ovis aries, UniProt P05979); experiment: COX Fluorescent Inhibitor Screening Assay Kit, COX-1; assay type: biochemical
T2 construct: purchased Cayman Chemical Company 700100
T2 sequence (P05979 25-600): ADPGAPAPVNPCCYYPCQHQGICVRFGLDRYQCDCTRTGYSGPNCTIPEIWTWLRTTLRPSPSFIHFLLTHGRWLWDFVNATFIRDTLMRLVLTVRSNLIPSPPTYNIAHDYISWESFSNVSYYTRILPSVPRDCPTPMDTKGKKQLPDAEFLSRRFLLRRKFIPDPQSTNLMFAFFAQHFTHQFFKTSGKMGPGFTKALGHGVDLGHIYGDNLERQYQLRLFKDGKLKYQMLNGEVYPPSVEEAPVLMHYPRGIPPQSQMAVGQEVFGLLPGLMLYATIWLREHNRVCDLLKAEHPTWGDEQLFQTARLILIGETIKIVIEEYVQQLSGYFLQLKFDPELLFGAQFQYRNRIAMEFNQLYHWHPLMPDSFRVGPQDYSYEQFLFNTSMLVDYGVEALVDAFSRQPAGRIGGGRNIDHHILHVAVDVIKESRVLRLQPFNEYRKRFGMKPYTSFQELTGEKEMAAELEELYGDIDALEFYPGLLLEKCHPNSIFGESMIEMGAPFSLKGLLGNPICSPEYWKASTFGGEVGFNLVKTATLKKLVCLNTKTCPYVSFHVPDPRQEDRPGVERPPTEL
Experimental: In this work, 100 µM arachidonic acid was applied according to the manufacturer’s instructions for the “COX Fluorescent Inhibitor Screening Assay Kit”.

A375 = experiment: MTT cytotoxicity test A375; assay type: cell-based, human; conditions: A375, 48 h, up to 100 µM, mean ± SD
Experimental: as §1, §2

HT29 = experiment: MTT cytotoxicity test HT29; assay type: cell-based, human; conditions: HT29, 48 h, up to 100 µM, mean ± SD
Experimental: as §1, §2

LN229 = experiment: MTT cytotoxicity test LN229; assay type: cell-based, human; conditions: LN229, 48 h, up to 100 µM, mean ± SD
Experimental: as §1, §2

logD7.4 by HPLC method = assay type: physicochemical; conditions: pH 7.4
Text: The measured variances in logD7.4 measurements between the two compounds and the two methods lie in the typical range of the method, and both compounds can be seen as equally hydrophobic. This confirms that the replacement of a phenyl ring with a carborane moiety indeed increased the hydrophobicity and could therefore result in an increased BBB penetration of compound 5 compared to flurbiprofen.
In both cases, the eluent consisted of methanol and a 0.01 M phosphate buffer (pH = 7.4); the applied gradient was 0 min at 70% methanol, 10 min at 100% methanol, 20 min at 100% methanol at a flow rate of 0.6 mL/min.

U251 = experiment: MTT cytotoxicity test U251; assay type: cell-based, human; conditions: U251, 48 h, up to 100 µM, mean ± SD
Experimental: as §1, §2

NIH/3T3 = experiment: MTT cytotoxicity test NIH/3T3; assay type: cell-based, mouse; conditions: NIH/3T3, 48 h, up to 100 µM, mean ± SD
Experimental: as §1, §2

human COX-2 = molecular target: T3, human COX-2 (Homo sapiens, UniProt P35354); experiment: COX Fluorescent Inhibitor Screening Assay Kit, COX-2; assay type: biochemical
T3 construct: purchased Cayman Chemical Company 700100
T3 sequence (P35354 18-604): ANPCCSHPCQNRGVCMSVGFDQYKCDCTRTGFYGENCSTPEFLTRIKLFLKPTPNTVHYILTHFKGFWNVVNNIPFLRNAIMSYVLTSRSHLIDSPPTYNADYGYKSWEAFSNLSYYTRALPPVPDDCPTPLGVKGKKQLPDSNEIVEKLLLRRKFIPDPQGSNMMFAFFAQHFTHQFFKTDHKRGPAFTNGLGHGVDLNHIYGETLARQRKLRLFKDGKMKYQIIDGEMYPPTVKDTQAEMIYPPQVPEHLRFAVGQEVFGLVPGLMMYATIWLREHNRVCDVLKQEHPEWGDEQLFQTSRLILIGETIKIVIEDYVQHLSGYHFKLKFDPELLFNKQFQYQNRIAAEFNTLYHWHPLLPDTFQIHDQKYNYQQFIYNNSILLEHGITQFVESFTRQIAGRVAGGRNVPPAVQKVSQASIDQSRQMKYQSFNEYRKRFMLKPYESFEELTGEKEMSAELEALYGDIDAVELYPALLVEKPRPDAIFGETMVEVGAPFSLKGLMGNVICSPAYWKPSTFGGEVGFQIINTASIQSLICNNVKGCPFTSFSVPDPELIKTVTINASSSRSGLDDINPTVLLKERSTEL

B16 = experiment: MTT cytotoxicity test B16; assay type: cell-based, mouse; conditions: B16, 48 h, up to 100 µM, mean ± SD
Experimental: as §1, §2

C6 = experiment: MTT cytotoxicity test C6; assay type: cell-based, rat; conditions: C6, 48 h, up to 100 µM, mean ± SD
Experimental: as §1, §2

B16–F10 = experiment: MTT cytotoxicity test B16–F10; assay type: cell-based, mouse; conditions: B16–F10, 48 h, up to 100 µM, mean ± SD
Experimental: as §1, §2

[1] = set-up: method as in PMID 25513709; conditions: shake flask; cited from earlier work
[2] = enzyme-based assay, result in words

Row | sum of all measured Aβ species (Aβ38, Aβ40 and Aβ42) vs DMSO control (γ-secretase; 150 µM) | effect on Aβ42:Aβ40 ratio (γ-secretase; extracellular Aβ) | ratio of short Aβ38 to longer Aβ42 (γ-secretase processivity) (γ-secretase; overnight treatment) | effect on Aβ42 (ratio of total Aβ) (γ-secretase; overnight treatment, conditioned medium) | inhibitory activity on COX-1 (ovine COX-1; [2]) | IC50 (ovine COX-1; ovine COX-1, fluorescence kit, 100 µM arachidonic acid, read-out: IC50 inhibition of COX-1) [µM] | logD7.4 (logD7.4 by HPLC method; HPLC method 1: Chromolith Speed ROD RP-18E 50) | logD7.4 (logD7.4 by HPLC method; HPLC method 2 (standard conditions): Asahipak ODP-50 4B 4.6 × 50) | inhibitory activity on COX-2 (human COX-2; [2]) | IC50 (human COX-2; human COX-2, fluorescence kit, 100 µM arachidonic acid, read-out: IC50 inhibition of COX-2) [µM] | Molecule | IC50 (HCT116) [µM] | IC50 (A375) [µM] | IC50 (HT29) [µM] | IC50 (LN229) [µM] | IC50 (U251) [µM] | IC50 (NIH/3T3) [µM] | IC50 (B16) [µM] | IC50 (C6) [µM] | IC50 (B16–F10) [µM] | logD7.4 [1]
1 | did not decrease significantly | lowering | increased | clear dose-dependent decrease | No inhibitory activity | > 100 | 2.00 | 1.86 | No inhibitory activity | > 100 | 2-[4-(1,7-Dicarba-closo-dodecaboran-9-yl(12))phenyl]propionic acid [Compound 5] | > 100 | 96 ± 5.9 | > 100 | 95 ± 7.1 | 77.5 ± 7.2 | 90 ± 10 | 79 ± 2.4 | 92.8 ± 4.8 | 74.7 ± 0.9 | –
2 | – | – | – | – | – | – | – | – | – | – | CC(C(=O)O)c1ccc(-c2ccccc2)c(F)c1 (racemic) [Flurbiprofen, (±)-2-fluoro-α-methyl-4-biphenylacetic acid] | – | – | – | – | – | – | – | – | – | 0.91
